Laboratory results from patent publication US10857105B2, “Compounds and compositions for intracellular delivery of therapeutic agents” (ModernaTX, Inc., priority 2017, dated 2020).

Legend:
IL-6, IP-10 = test: Cytokine induction (IL-6, IP-10) in mice 6 hours after intravenous administration; assay type: in vivo; design: unit not given here; conditions: intravenous 0.5 mpk
Procedure, shortened: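 Mice dosed intravenously with nanoparticle compositions at 0.5 mpk; serum cytokine concentrations (IL-6, IP-10) measured at 6 hours. MC3 formulation and PBS controls run alongside.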

hEPO mRNA [1] = test: hEPO expression after intravenous administration to rats; assay type: in vivo, rat; conditions: for hEPO expression / hEPO expression, 0.25 h / hEPO expression, 0.5 h / hEPO expression, 1 h / hEPO expression, 2 h / hEPO expression, 4 h / hEPO expression, 8 h / hEPO expression, 24 h / hEPO expression, 48 h: rat; for Lipid/MC3 hEPO conc. ratio, 0.2 mpk / Lipid/MC3 hEPO conc. ratio, 2 mpk: rats; for Lipid/MC3 hEPO expression: 6 hours after administration
[2] = Particle size and polydispersity index of nanoparticle compositions (Zetasizer Nano ZS); assay type: physicochemical
Procedure, shortened: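 Size and PDI measured by Zetasizer Nano ZS in 1×PBS (zeta potential in 15 mM PBS). Lipid nanoparticles contained test ionizable lipid:DSPC:cholesterol:PEG-DMG at 50:10:38.5:1.5 mol % with N1-methyl-pseudouridine mRNA encoding luciferase or hEPO.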

[3] = Pharmacokinetic study of lipids in plasma, liver and spleen (compound 18, compound 25, MC3); conditions: for clearance from liver tissue: rat pharmacokinetic study, 24-48 hours; for half-life / AUC / Cmax / Tmax: male, Sprague-Dawley, rat, iv; for HL: table titled mouse
Procedure: LNP administration to animals: mRNA-LNPs diluted in phosphate buffered saline (PBS) were injected intravenously (5 mL/kg) into female CD-1 female mice (18 to 22 g in body weight) and male Sprague-Dawley rats (225-250 g in body weight) via the tail vein using 29 g, 3/10 cc insulin syringes (mice) or 27 g, 1 mL syringes (rats) after gentle warming of the animals using a heat lamp for 3 minutes.
Protein was precipitated and analyzed against calibration standards prepared in matching blank. Chromatographic separation and quantification was accomplished with a LC-MS/MS System. Samples were injected and separated via HPLC A triple-quadrupole MS/MS system operated in positive ion mode was used for signal detection.
PK analysis of the individual plasma and tissue concentration data was performed using anon-validated program (Phoenix WinNonlin®, Version 7.0 (Pharsight Corp., Mountain View, Calif.)). Kinetic parameters were estimated using a noncompartmental model (Plasma (200-202), Uniform weighting, extravascular dosing with sparse sampling). The AUG was calculated using the linear trapezoidal rule. All derived parameters are reported to 3 significant figures with the exception of time to peak concentration (Tmax) and halflife (HL), which are reported to one decimal place. No further statistical analyses were performed on the plasma concentration data or derived pharacokinetic parameters.

hEPO mRNA [4] = test: hEPO expression after intramuscular administration to mice; assay type: in vivo; conditions: for Novel lipid/MC3 ratio, i.m. hEPO: Table 3G, intramuscular, 6 hr. timepoint, relative to MC3
Procedure: The numbers 1-11 in this figure correspond to MC3, Compounds 18, 25, 30, 108-112, 60, and 122 respectively.
The expression of hEPO and cytokine induction in mice intravenously administered a nanoparticle composition at a dose of 0.5 mpk were measured at 3, 6, and 24 hours. […] The expression of hEPO in mice intramuscularly administered a nanoparticle composition from Table 1B at a dose of 0.01 mpk were measured at 3, 6, and 24 hours. […] (see

[5] = Table 1A, lipid:DSPC:cholesterol:PEG-DMG 50:10:38.5:1.5 mol %
[6] = Table 1B, formulated with hEPO mRNA
[7] = Table 1D, compositions for subcutaneous administration, # formulated with hEPO mRNA
[8] = Table 1C, compositions for subcutaneous administration
[9] = Table 1E, compositions for subcutaneous administration
[10] = lipid:DSPC:Chol:PEG-DMG (50:10:38.5:1.5), hEPO mRNA
[11] = nanoparticle composition with hEPO mRNA (Table 30)

## CCCCCCCCCN(CCO)CCCCCCCC(=O)OC(CCCCCCCC)CCCCCCCC [Compound 3, Heptadecan-9-yl 8-((2-hydroxyethyl)(nonyl)amino)octanoate]
IL-6, IP-10
  Cytokine induction, IL-6: 282.88
  Cytokine induction, IP-10: 2052.87
hEPO mRNA [1]; intravenous, 6 h, 2 mpk
  hEPO expression: 1.74e+07 pg/mL
hEPO mRNA [1]; intravenous 0.2 mpk, 6 hours
  Lipid/MC3 hEPO conc. ratio, 0.2 mpk: 2.41
hEPO mRNA [1]; intravenous 2 mpk, 6 hours
  Lipid/MC3 hEPO conc. ratio, 2 mpk: 1.21
[2]; [5]
  Size: 97.5 nm

## CCCCCCCCCOC(=O)CCCCCCCN(CCO)CCCCCCCC(=O)OC(CCCCCCCC)CCCCCCCC [Compound 18, Heptadecan-9-yl 8-((2-hydroxyethyl)(8-(nonyloxy)-8-oxooctyl)amino)octanoate]
IL-6, IP-10
  Cytokine induction, IL-6: 78.76
  Cytokine induction, IP-10: 139.92
hEPO mRNA [1]; intravenous 0.2 mpk
  hEPO expression, 0.25 h: 20227 pg/mL
  hEPO expression, 0.5 h: 20743 pg/mL
  hEPO expression, 1 h: 194353 pg/mL
  hEPO expression, 2 h: 238107 pg/mL
  hEPO expression, 4 h: 514807 pg/mL
  hEPO expression, 8 h: 915320 pg/mL
  hEPO expression, 24 h: 412051 pg/mL
  hEPO expression, 48 h: 52361 pg/mL
hEPO mRNA [1]; intravenous, 6 h, 2 mpk
  hEPO expression: 9.96e+06 pg/mL
hEPO mRNA [1]; intravenous 2 mpk, 6 hours
  Lipid/MC3 hEPO conc. ratio, 2 mpk: 0.81
[2]; [5]
  Size: 87.9 nm
[2]; [6]
  Size: 73.7 nm
[2]; [7]
  Size: 75.0 nm
[3]; liver
  clearance from liver tissue: efficiently cleared from liver tissue by 24 hours

## CCCCCC/C=C\COC(=O)CCCCCCCN(CCO)CCCCCCCC(=O)OC(CCCCCCCC)CCCCCCCC [Compound 24, Heptadecan-9-yl (Z)-8-((2-hydroxyethyl) (8-(non-2-en-1-yloxy)-8-oxooctyl)amino)octanoate]
IL-6, IP-10
  Cytokine induction, IL-6: 163.53
  Cytokine induction, IP-10: 1172.93
hEPO mRNA [1]; intravenous, 6 h, 2 mpk
  hEPO expression: 1.44e+07 pg/mL
hEPO mRNA [1]; intravenous 0.2 mpk, 6 hours
  Lipid/MC3 hEPO conc. ratio, 0.2 mpk: 1.75
hEPO mRNA [1]; intravenous 2 mpk, 6 hours
  Lipid/MC3 hEPO conc. ratio, 2 mpk: 1.01
[2]; [5]
  Size: 99.5 nm
[2]; [8]
  Size: 88.5 nm

## CCCCCCCCCCCOC(=O)CCCCCN(CCO)CCCCCCCC(=O)OC(CCCCCCCC)CCCCCCCC [Compound 25, Heptadecan-9-yl 8-((2-hydroxyethyl)(6-oxo-6-(undecyloxy)hexyl)amino)octanoate]
hEPO mRNA [4]
  Novel lipid/MC3 ratio, i.m. hEPO: 7.1
IL-6, IP-10
  Cytokine induction, IL-6: 233.45
  Cytokine induction, IP-10: 1194.13
hEPO mRNA [1]; intravenous 0.2 mpk
  hEPO expression, 0.25 h: 0 pg/mL
  hEPO expression, 0.5 h: 19553 pg/mL
  hEPO expression, 1 h: 434299 pg/mL
  hEPO expression, 2 h: 2042807 pg/mL
  hEPO expression, 4 h: 3176560 pg/mL
  hEPO expression, 8 h: 2631633 pg/mL
  hEPO expression, 24 h: 869374 pg/mL
  hEPO expression, 48 h: 103089 pg/mL
hEPO mRNA [1]; intravenous, 6 h, 2 mpk
  hEPO expression: 3.05e+07 pg/mL
hEPO mRNA [1]; intravenous 0.2 mpk, 6 hours
  Lipid/MC3 hEPO conc. ratio, 0.2 mpk: 2.41
hEPO mRNA [1]; intravenous 2 mpk, 6 hours
  Lipid/MC3 hEPO conc. ratio, 2 mpk: 2.13
[2]; [6]
  Size: 69.7 nm
[2]; [8]
  Size: 76.3 nm
[2]; [7]
  Size: 77.6 nm
[3]; liver
  half-life: 6.9 h
  clearance from liver tissue: efficiently cleared from liver tissue by 24 hours

## CCCCCCCCCOC(=O)CCCN(CCO)CCCCCCCC(=O)OC(CCCCCCCC)CCCCCCCC [Compound 26, Heptadecan-9-yl 8-((2-hydroxyethyl)(4-(nonyloxy)-4-oxobutyl)amino) octanoate]
IL-6, IP-10
  Cytokine induction, IL-6: 273.56
  Cytokine induction, IP-10: 2330.01
hEPO mRNA [1]; intravenous 2 mpk, 6 hours
  Lipid/MC3 hEPO conc. ratio, 2 mpk: 4.95

## CCCCCCCCCOC(=O)CCCCCCCN(CCO)CCCCCCCOC(=O)C(CCCCCCCC)CCCCCCCC [Compound 30, 7-((2-Hydroxyethyl)(8-(nonyloxy)-8-oxooctyl)amino)heptyl 2-octyldecanoate]
hEPO mRNA [4]
  Novel lipid/MC3 ratio, i.m. hEPO: 9.2
IL-6, IP-10
  Cytokine induction, IL-6: 152.51
  Cytokine induction, IP-10: 1638.77
hEPO mRNA [1]; intravenous, 6 h, 2 mpk
  hEPO expression: 1.63e+07 pg/mL
hEPO mRNA [1]; intravenous 0.2 mpk, 6 hours
  Lipid/MC3 hEPO conc. ratio, 0.2 mpk: 1.87
hEPO mRNA [1]; intravenous 2 mpk, 6 hours
  Lipid/MC3 hEPO conc. ratio, 2 mpk: 1.14
[2]; [5]
  Size: 59.4 nm
[2]; [6]
  Size: 76.3 nm
[2]; [8]
  Size: 81.7 nm
[2]; [7]
  Size: 89.8 nm

## CCCCCCCCC(C)OC(=O)CCCCCCCN(CCO)CCCCCCCC(=O)OC(CCCCCCCC)CCCCCCCC (stereo not drawn) [Compound 48, decan-2-yl 8-((8-(heptadecan-9-yloxy)-8-oxooctyl)(2-hydroxyethyl)amino)octanoate]
hEPO mRNA [1]; intravenous 0.2 mpk, 6 hours
  Lipid/MC3 hEPO conc. ratio, 0.2 mpk: 5.39
hEPO mRNA [1]; intravenous 2 mpk, 6 hours
  Lipid/MC3 hEPO conc. ratio, 2 mpk: 3.84
[2]; [5]
  Size: 82.3 nm
[2]; [7]
  Size: 79.8 nm

## CCCCCC=CCC=CCCCCCCCCC(CCCCCCCCC=CCC=CCCCCC)OC(=O)CCCN(C)C (stereo not drawn) [MC3, heptatriaconta-6,9,28,31-tetraen-19-yl 4-(dimethylamino)butanoate, reference compound]
hEPO mRNA [4]; mice, intramuscular 0.01 mpk, 6 hr time point
  Fold increase in hEPO concentration relative to MC3: 1
IL-6, IP-10
  Cytokine induction, IL-6: 124.42
  Cytokine induction, IP-10: 504.90
hEPO mRNA [1]; 0.2 mpk dose to rat
  Lipid/MC3 hEPO expression: 1
hEPO mRNA [1]; 2 mpk dose to rat
  Lipid/MC3 hEPO expression: 1
hEPO mRNA [1]; Table 19B
  [hEPO]: 14800 pg/mL
  hEPO AUC: 3.46e+07 pg·h/mL
hEPO mRNA [1]; intravenous 0.2 mpk
  hEPO expression, 0.25 h: 0 pg/mL
  hEPO expression, 0.5 h: 42457 pg/mL
  hEPO expression, 1 h: 93720 pg/mL
  hEPO expression, 2 h: 524093 pg/mL
  hEPO expression, 4 h: 601307 pg/mL
  hEPO expression, 8 h: 1536833 pg/mL
  hEPO expression, 24 h: 703619 pg/mL
  hEPO expression, 48 h: 64687 pg/mL
hEPO mRNA [1]; intravenous 0.2 mpk, 6 hours
  hEPO expression: 7.68e+06 pg/mL
  Lipid/MC3 hEPO conc. ratio, 0.2 mpk: 1
hEPO mRNA [1]; intravenous 2 mpk, 6 hours
  hEPO expression: 9.29e+06 pg/mL
  Lipid/MC3 hEPO conc. ratio, 2 mpk: 1
hEPO mRNA [1]; intravenous, 6 h, 2 mpk
  hEPO expression: 1.33e+07 pg/mL
[2]; [5]
  PDI: 0.11
  Size: 79.7 nm
[2]; [6]
  PDI: 0.12
  Size: 57.7 nm
[2]; [8]
  PDI: 0.09
  Size: 56.9 nm
[2]; [7]
  PDI: 0.15
  Size: 69.1 nm
[2]; [9]
  PDI: 0.10
  Size: 62.4 nm
[2]; [10]
  PDI: 0.114
  Size: 73.7 nm
[2]; [11]
  PDI: 0.220
  Size: 106.0 nm
[3]; Liver, * = 2 terminal datapoints estimation
  HL: 52.5* hr
[3]; Plasma
  HL: 8.4 h
[3]; Spleen, * = 2 terminal datapoints estimation
  HL: 33.3* hr
[3]; liver
  AUC: 1410 µg·h/mL
  Cmax: 33 µg/mL
  Tmax: 24 h
  half-life: > 50 h
  clearance from liver tissue: still present at high concentrations at 48 hours
[3]; plasma
  AUC: 69.1 µg·h/mL
  Cmax: 28.9 µg/mL
  Tmax: 0.5 h
[3]; spleen
  AUC: 787 µg·h/mL
  Cmax: 21.2 µg/mL
  Tmax: 8 h

## Nonyl 8-((6-(heptadecan-9-yloxy)-6-oxohexyl)(2-hydroxyethyl)amino) octanoate [Compound 27]
IL-6, IP-10
  Cytokine induction, IL-6: 161.07
  Cytokine induction, IP-10: 345.56
[2]; [5]
  PDI: 0.18
  Size: 82.3 nm
